In patent publication US10660908B2, “Pharmaceutical spray composition comprising a vitamin D analogue and a corticosteroid” (LEO Pharma A/S, priority 2010, dated 2020):
Entries after “also recorded” stand apart in the source; their conditions may differ.

What was measured:
[1] = one study, M. Hannuksela et al., Contact Dermatitis 1, 1975; cited from earlier work
[2] = Physical stability by polarized light microscopy (Example 1); format: physicochemical; conditions: compositions left to stand for 4 months
Procedure: The physical stability of calcipotriol and BDP in the composition was determined by polarized light microscopy.

[3] = Solubility of calcipotriol and BDP in different propellant mixtures (Example 1); format: physicochemical; conditions: for dissolution in propellant: 100% DME as the propellant; for dissolution in propellant mixture: ratio of butane to DME of 4:3, in both the propellant and vehicle phases, 67 mg BDP, 13 mg calcipotriol, 20 g vehicle
Procedure: 2×12 100 ml glass bottles fitted with a valve and actuator were filled with compositions containing 67 mg BDP, 13 mg calcipotriol, 20 g vehicle (comprising liquid paraffin, white soft paraffin and PPG-15-stearyl ether) and varying amounts of DME and butane as shown in Table 1. The composition formed a continuous phase and a dispersed phase presumed to be composed of long-chain alkanes (with ≥50 carbon atoms in the chain) present in the white soft paraffin. The dispersed phase sedimented in the bottom portion of the composition on standing. Thus, the top portion of the composition contained only the continuous phase, while the bottom portion of the composition was composed of a mixture of continuous and dispersed phases.
The sprayed samples were placed on a water bath at 40° C. for 5 hours until the propellant had evaporated. The samples were then cooled for 1 hour at room temperature.
Column: Agilent Zorbas Eclipse Plus C18, 150×4.6 mm, 3.5 μm
Mobile phase: acetonitrile/methanol/0.01M (NH4)2HPO4, pH 6.0, 25:45:30 (v/v/v)
Detection: […]. Calculation at 264 nm for calcipotriol and 240 nm for BDP

[4] = Chemical stability of calcipotriol/BDP in the presence of different gasket materials (Example 8); format: physicochemical
Procedure: In order to test the compatibility of the composition with various gasket materials, samples were prepared with Composition E, see Example 2, filled in aluminum spray containers with a polyamide-polyimide inner lacquer and closed with a valve cup crimped to the container body. To each container, 10 pieces or an equivalent amount of gasket test material were added to the spray container and allowed to be submerged in the composition. The containers were stored at 25° C. or 40° C. and tested after 1 and 3 months at 40° C., and after 3 months at 25° C.
After storage, the composition was sprayed out in a glass bottle, and the propellants were allowed to evaporate for 2 days. The non-volatile part of the composition was analyzed for calcipotriol, betamethasone dipropionate and their related organic impurities.
The amount of calcipotriol was determined by HPLC after liquid extraction followed by a controlled isomerization at 50° C. Methyl testosterone was used as the internal standard. The following conditions were used for the HPLC analysis:
Column: LiChrospher RP-18, 125×4 mm, 5 μm
Mobile phase: Acetonitrile/methanol/0.01M (NH4)2PO4 (20:50:30)
Run time: Approx. 9 minutes
The organic impurities related to calcipotriol were determined by HPLC after liquid extraction, using the following conditions:
Column: YMC ODS-AM, 150×4.6 mm, 3 μm
Run time: 2 times the retention time of calcipotriol
The amount of betamethasone dipropionate was determined by HPLC after liquid extraction, using beclomethasone dipropionate as internal standard and the following HPLC conditions:
Column: Superspher RP-18, 75×4 mm, 4 μm
Mobile phase: Acetonitrile/water (50:55)
The organic impurities related to betamethasone dipropionate were extracted by liquid extraction and analyzed by HPLC using the following conditions:
Mobile phase: Acetonitrile/0.05M (NH4)2PO4 pH 7 (50:55)
Run time: Approx. 20 minutes

[5] = Chemical stability of calcipotriol/BDP in the presence of different inner lacquers (Example 6); format: physicochemical
Procedure: Batches of Composition A prepared as described in Example 2 and placed in aluminium spray containers provided with two different types of inner lacquer, an epoxyphenol based lacquer (HOBA 7940/7407) and a polyimide-polyamide based lacquer (HOBA 8460), respectively, were tested for chemical stability of the active ingredients after standing for 1 month at 40° C. by spraying samples of each batch into a glass and subjecting them to HPLC by the procedure described in Example 3.

[6] = Composition E in contact with Buna and NPR gaskets
[7] = Composition E in contact with Viton and EPDM gaskets

dissolution in propellant [3] | dissolution in propellant mixture [3] | stability (in words) [4, 6] | stability (in words) [4, 7] | chemical stability: effect of the composition of the inner lacquers ([5]; epoxyphenol vs polyimide-polyamide lacquer) | chemical stability (in words) ([5]; polyimide-polyamide based inner lacquer) | Structure (SMILES) | number of irritant reactions [1] | physical stability (recrystallization) [2] | chemical stability (in words) ([5]; epoxyphenol based inner lacquer of the spray container)
 |  |  |  |  |  | CC(O)CO (centres unmarked) [propylene glycol] | 12.5% |  | 
completely dissolved | completely dissolved | decomposition | did not have negative impact | much less affected |  | CCC(=O)OCC(=O)[C@@]1(OC(=O)CC)[C@@H](C)C[C@H]2[C@@H]3CCC4=CC(=O)C=C[C@]4(C)[C@@]3(F)[C@@H](O)C[C@@]21C [betamethasone dipropionate] |  | neither calcipotriol or BDP recrystallize | 
completely dissolved | completely dissolved | decomposition | did not have negative impact |  | acceptable; also recorded: satisfactory | C=C1/C(=C\C=C2/CCC[C@]3(C)[C@@H]([C@H](C)/C=C/[C@@H](O)C4CC4)CC[C@@H]23)C[C@@H](O)C[C@@H]1O [calcipotriol, Calcipotriol] |  | neither calcipotriol or BDP recrystallize | unacceptably degraded; also recorded: unacceptable chemical degradation
